Measurements reported in US20260191835A1, “COMBINATIONS COMPRISING A MENIN-MLL INHIBITOR AND AT LEAST ONE OTHER THERAPEUTIC AGENT” (JANSSEN PHARMACEUTICA NV, priority 2022, published 2026).

How the values were obtained:
MOLM14 cells = experiment: Proliferation assay (spheroid assay), MOLM14; format: cell-based; settings: Homo sapiens, MOLM-14, 192 h, 8 days; read-out: spheroid assay_MOLM14 IC50
Description: The anti-proliferative effect of menin/MLL protein/protein interaction inhibitor test compounds was assessed in human leukemia cell lines. The cell line MOLM14 harbors a MLL translocation and expresses the MLL fusion protein MLL-AF9, respectively, as well as the wildtype protein from the second allele. OCI-AML3 cells that carry the NPM1c gene mutation were also tested. […] KO-52 was used as a control cell line containing two MLL (KMT2A) wildtype alleles in order to exclude compounds that display general cytotoxic effects.
MOLM14 cells were cultured in RPMI-1640 (Sigma Aldrich) supplemented with 10% heat-inactivated fetal bovine serum (HyClone), 2 mM L-glutamine (Sigma Aldrich) and 50 μg/ml gentamycin (Gibco). KO-52 and OCI-AML3 cell lines were propagated in alpha-MEM (Sigma Aldrich) supplemented with 20% heat-inactivated fetal bovine serum (HyClone), 2 mM L-glutamine (Sigma Aldrich) and 50 µg/ml gentamycin (Gibco).
In order to assess the anti-proliferative effects, 200 MOLM14 cells, […] or 300 KO-52 cells were seeded in 200 μl media per well in 96-well round bottom, ultra-low attachment plates (Costar, catalogue number 7007). Cell seeding numbers were chosen based on growth curves to ensure linear growth throughout the experiment. Test compounds were added at different concentrations and the DMSO content was normalized to 0.3%. Cells were incubated for 8 days at 37° C. and 5% CO2. Spheroid like growth was measured in real-time by live-cell imaging (IncuCyteZOOM, Essenbio, 4× objective) acquiring images at day 8. Confluence (%) as a measure of spheroid size was determined using an integrated analysis tool.
In order to determine the effect of the test compounds over time, the confluence in each well as a measure of spheroid size, was calculated. Confluence of the highest dose of a reference compound was used as baseline for the LC (Low control) and the confluence of DMSO treated cells was used as 0% cytotoxicity (High Control, HC).
Absolute IC50 values were calculated as percent change in confluence as follows: • LC=Low Control: cells treated with e.g. […] of the cytotoxic agent staurosporin, or e.g. cells treated with a high concentration of an alternative reference compound • HC=High Control: Mean confluence (%) (DMSO treated cells)
GraphPad Prism (version 7.00) was used to calculate the IC50. Dose-response equation was used for the plot of % Effect vs Log 10 compound concentration with a variable slope and fixing the maximum to 100% and the minimum to 0%.

MEIS1 mRNA expression = MEIS1 mRNA expression assay (Quantigene Singleplex) in MOLM14; format: cell-based; settings: Homo sapiens, MOLM-14, 48 h, MOLM14 cells, 48 hours with compound
Description: 2b) MEIS1 mRNA Expression Assay
MEIS1 mRNA expression upon treatment of compound was examined by Quantigene Singleplex assay (Thermo Fisher Scientific). This technology allows for direct quantification of mRNA targets using probes hybridizing to defined target sequences of interest and the signal is detected using a Multimode plate reader Envision (PerkinElmer). The MOLM14 cell line was used for this experiment. Cells were plated in 96-well plates at 3,750 cells/well in the presence of increasing concentrations of compounds. After incubation of 48 hours with compounds, cells were lysed in lysis buffer and incubated for 45 minutes at 55° C. Cell lysates were mixed with human MEIS1 specific capture probe or human RPL28 (Ribosomal Protein L28) specific probe as a normalization control, as well as blocking probes. Cell lysates were then transferred to the custom assay hybridization plate (Thermo Fisher Scientific) and incubated for 18 to 22 hours at 55° C. Subsequently, plates were washed to remove unbound materials followed by sequential addition of preamplifiers, amplifiers, and label probe. Signals (=gene counts) were measured with a Multimode plate reader Envision. IC50s were calculated by dose-response modelling using appropriate software. For all non-housekeeper genes response equal counts corrected for background and relative expression. For each sample, each test gene signal (background subtracted) was divided by the normalization gene signal (RPL28: background subtracted). Fold changes were calculated by dividing the normalized values for the treated samples by the normalized values for the DMSO treated sample. Fold changes of each target gene were used for the calculation of IC50s.

[1] = Dynamic vapor sorption (DVS) moisture sorption analysis; format: physicochemical
Description: Dynamic Vapor Sorption (DVS) The moisture sorption analysis (DVS) was performed using a ProUmid GmbH & Co. KG Vsorp Enhanced dynamic vapor sorption apparatus. The moisture profile was evaluated by monitoring vapor adsorption/desorption over the range of 0 to 90% relative humidity at 25° C. The sample weight equilibrium criteria were set at 0.01% change in 45 min with minimum and maximum time of acclimation at 50 min and 120 min, respectively. The moisture profile consisted of 2 cycles of vapor adsorption/desorption.

[2] = common ambient RH of 40% to 75%

Row | IC50 (MOLM14 cells) | IC50 (MEIS1 mRNA expression) | Compound | other results
1 | 41 nM | 7 nM | CNC(=O)N1CCC(CN2CC[C@H](Cc3cn(-c4ccc(F)cc4C(=O)N(C)C(C)C)c4cncc(C)c34)C2)CC1 (single isomer, unassigned) [Compound 101] | –
2 | 5 nM | 7 nM | COCC(=O)N1CCC(C(C)N2CCC(Cc3cn(-c4ccc(F)cc4C(=O)N(C)C(C)C)c4cncc(C)c34)C2)CC1 (single isomer, unassigned) [Compound 117a] | –
3 | – | – | CC(=O)N1CCC(CN2CC[C@@H](Cc3cn(-c4ccc(F)cc4C(=O)N(C)C(C)C)c4cncc(C)c34)C2)CC1.Cl [Compound 51a] | solid-state form stability after the DVS test (XRPD) ([1]; 2 cycles of vapor adsorption/desorption): No indication of a solid-state form change was observed; total moisture mass at equilibrium [1, 2]: 8.5-9.5%; water content at equilibrium [1, 2]: around 3 equivalents of water; hygroscopicity (DVS change in mass) ([1]; crystalline HCl salt Form, 0 to 90% relative humidity at 25° C.): hygroscopic; moisture adsorbed and desorbed, by mass on average ([1]; humidity range of 20-90% RH, 25° C., slowly and reversibly): up to 2.5%
4 | – | 438 nM | Cc1cncc2c1c(CC1CN(CC3CCNC(=O)C3)C1)cn2-c1ccc(F)cc1C(=O)N(C)C(C)C (stereo not shown) [Compound 196] | –
5 | – | 153 nM | CC(=O)N1CC2CC(N3CC(Cc4cn(-c5ccc(F)cc5C(=O)N(C)C(C)C)c5cncc(C)c45)C3)CC2C1 (stereo not shown) [Compound 294b] | –
6 | 42 nM | 187 nM | CC(=O)N1CCC(N2CC[C@H](Cc3cn(-c4ccc(F)cc4C(=O)N(C)C(C)C)c4cncc(C)c34)C2)CC1 [Compound 156] | –
